Reference: patent publication US20230285596A1, “COMPOSITIONS AND METHODS FOR THE TREATMENT OF NIEMANN-PICK TYPE C1 DISEASE” (Voyager Therapeutics, Inc, priority 2020, published 2023)

Experiments:
[1] = test system: HEK293 cells; assay: NPC1 protein expression in HEK293 cells transfected with viral genome constructs (ELISA and Western Blot, normalized to GAPDH and transfection efficiency); type: cell-based; conditions: for % over Ref. (% overexpression compared to that of the reference ITR_ITR 2): transfection, NPC1 protein vs reference ITR_ITR 2 (SEQ ID NO: 1753), Table 6; for NPC1 expression normalized to GAPDH and transfection efficiency: EF-1a promoter variants with wtNPC1, FIG. 2
Text: The viral genome constructs encoding NPC1 generated, and investigated for expression of NPC1 protein in vitro. Use of different promoters (e.g., CBA promoters or variants thereof, CMV promoters and variants thereof, EF1a promoter variants) and/or codon optimized nucleotide sequences encoding the NPC1 protein (e.g., SEQ ID NO: 1750 or SEQ ID NO: 1749) (Table 6). An additional set of viral genome constructs were also investigated, testing different combinations of promoters and codon optimized sequences (Tables 7, 9 and 10).
In order to assess NPC1 expression, the viral genome constructs comprising a promoter operably linked to a transgene encoding were transfected into HEK293 cells. NPC1 protein level was determined by ELISA and Western Blot, and normalized to GAPDH control and transfection efficiency. The expression of NPC1 was calculated as percent overexpression relative to the reference construct (ITR_ITR 2 (SEQ ID NO: 1753) which comprises promoter variant 8 (SEQ ID NO: 1782) and the wild-type nucleotide sequence encoding NPC1 (SEQ ID NO: 1747)) (% over reference or % overexpression to reference).
Table 9 summarizes the constructs tested that comprise promoter variant 11 (SEQ ID NO: 1785), promoter variant 13 (SEQ ID NO: 1787), promoter variant 15 (SEQ ID NO: 1789), or promoter variant 18 (SEQ ID NO: 1791), operably linked to a transgene encoding NPC1 (wild-type or codon optimized nucleotide sequences encoding NPC1). These constructs were transfected into HEK293 cells, and the NPC1 protein expression was measured by ELISA and/or western blot and normalized to expression of a GAPDH control and transfection efficiency. The percent overexpression compared to a reference construct (ITR_ITR2 (SEQ ID NO: 1753), which comprises promoter variant 8 (SEQ ID NO: 1782) and the wild-type nucleotide sequence encoding NPC1 (SEQ ID NO: 1747)) was then calculated for each construct tested (% overexpression to reference) (Table 9, FIGS. 2-3).

[2] = test system: animal models of NPC disease; conditions: biweekly intrathecal (IT) injection; cited from earlier work
[3] = test system: human neuronal cells; assay: NPC1 protein expression in human neuronal cells; type: cell-based; conditions: human neurons, transduced; FIG. 10A
Text: Cell-lines and reagents: Standard cell-lines are used for initial screening. This includes lines from multiple species to align with in vivo studies. Since transduction of both neuronal and non-neuronal cell types are needed in vivo, two neuronal and two non-neuronal cell types are used for in vitro screening. These cell lines include naïve neuronal SK-N-AS cells (procured from ATCC), primary neuronal cultures from NPC1^−/− mice (see below), immortalized human hepatocytes (procured from Creative Bioarray or ATCC), NPC1 patient fibroblasts (procured from Coriell) and/or iPS Cells derived from NPC1 patients (Yu, Xiao-Hua, et al. “NPC1, intracellular cholesterol trafficking and atherosclerosis.”Clinica chimica acta 429 (2014): 69-75, the disclosure of which is incorporated by reference in its entirety). Example cell lines for use in assays described herein include fibroblast cell lines, which may be procured from Coriell Institute (Camden, N.J., United States). […]
NPC1 protein expression was further assessed for constructs ITR_ITR 2, ITR_ITR 1, ITR_ITR 3, ITR_ITR 4, and ITR_ITR 5 (SEQ ID NOs: 1753, 1752, and 1754-1756, respectively) in hepatocytes (FIG. 5, left graph) and constructs ITR_ITR 2, ITR_ITR 1, ITR_ITR 3, ITR_ITR 4, ITR_ITR 5, ITR_ITR 6, and ITR_ITR 7 (SEQ ID NOs: 1753, 1752, and 1754-1758, respectively) in human neuronal cells (FIG. 5, right graph). […]

[4] = test system: NPC1 patient fibroblasts; assay: NPC1 protein expression in NPC1 patient fibroblasts; type: cell-based, human; conditions: transduced, FIG. 10B
Text: NPC1/2 is overexpressed in HEK 293 cells using the AAV vector of Example 1 or other method of transfection. Western Blot and ELISA detection protocols are optimized using routine experimentation to establish assays for NPC1/2 protein detection. These and additional biochemical studies are used to validate assays and establish cell lines for additional in vitro analysis. For example, Western Blot and ELISA assays can be performed and optimized using fibroblast cell lines, which may be obtained from Coriell Institute (Camden, N.J., United States). Fibroblast cell lines can be from healthy individual donors (e.g., Coriell catalog nos. GM00038, GM00302, GM00500, GM00969, and/or GM05758—referred to respectively herein as H1, H2, H3, H4, and H5 cell lines) or from diagnosed Niemann-Pick Disease, Type C1 patient donors (e.g., Coriell catalog nos. GM00110, GM03123, GM18436, and/or GM23162 referred to respectively herein as N1, N2, N3, and N4 cell lines).
NPC1 protein expression was assessed in healthy and NPC1 patient fibroblasts according to the assays described in Example 2. […] ITR_ITR 1 rescued NPC1 protein to near 100% relative to healthy fibroblasts. ITR_ITR 3 and ITR_ITR 5 rescued NPC1 protein to 100% or greater relative to healthy fibroblasts. […]

[5] = % overexpression vs reference, Table 8

ITR_ITR 7: Viral genome SEQ ID NO: 1758: short CBA promoter (SEQ ID NO: 1735); WT NPC1 protein coding sequence
% over Ref. (% overexpression compared to that of the reference ITR_ITR 2) [1]: −15%

CCCCN1C[C@H](O)[C@@H](O)[C@H](O)[C@H]1CO [Miglustat]
efficacy in animal models of NPC disease [2]: effectively delay the onset of neurological signs, ameliorate cerebellar and liver dysfunction, and prolong lifespan

ITR_ITR 41: Viral genome SEQ ID NO: 1833: CMVie enhancer (SEQ ID NO: 1737); short CBA promoter; WT NPC1 protein coding sequence
% over Ref. (% overexpression compared to that of the reference ITR_ITR 2) [1]: 165%

wtNPC1: Wild type Human NPC1 Coding Sequence, SEQ ID NO: 1747 [reference compound]
NPC1 expression, CBA promoter with intron [1, 5]: 72% | NPC1 expression, CBA promoter without intron [1, 5]: −15% | NPC1 expression, CMV promoter with intron [1, 5]: 356% | NPC1 expression, CMV promoter without intron [1, 5]: 203% | NPC1 expression, Promoter Variant 8 (SEQ ID NO: 1782) with intron [1, 5]: 311%

2-hydroxypropyl-β-cyclodextrin
efficacy in animal models of NPC disease [2]: effectively delay the onset of neurological signs, ameliorate cerebellar and liver dysfunction, and prolong lifespan

B1: Promoter Variant 11: EF-1a promoter variant, 236 nt, SEQ ID NO: 1785 (nucleic acid)
DNA: CGTGAGGCTCCGGTGCCCGTCAGTGGGCAGAGCGCACATCGCCCACAGTCCCCGAGAAGTTGGGGGGAGGGGTCGGCAATTGAACCGGTGCCTAGAGAAGGTGGCGCGGGGTAAACTGGGAAAGTGATGTCGTGTACTGGCTCCGCCTTTTTCCCGAGGGTGGGGGAGAACCGTATATAAGTGCAGTAGTCGCCGTGAACGTTCTTTTTCGCAACGGGTTTGCCGCCAGAACACAG
NPC1 expression (NPC1/B-actin) [3]: increased expression of NPC1 compared to the CMV promoter | NPC1 expression normalized to GAPDH and transfection efficiency [1]: increased NPC1 expression relative to the ITR_ITR 2 reference construct

B2: Promoter Variant 13: EF-1a promoter variant, 241 nt, SEQ ID NO: 1787 (nucleic acid)
DNA: GCATGCGTGAGGCTCCGGTGCCCGTCAGTGGGCAGAGCGCACATCGCCCACAGTCCCCGAGAAGTTGGGGGGAGGGGTCGGCAATTGAACCGGTGCCTAGAGAAGGTGGCGCGGGGTAAACTGGGAAAGTGATGTCGTGTACTGGCTCCGCCTTTTTCCCGAGGGTGGGGGAGAACCGTATATAAGTGCAGTAGTCGCCGTGAACGTTCTTTTTCGCAACGGGTTTGCCGCCAGAACACAG
NPC1 expression normalized to GAPDH and transfection efficiency [1]: increased NPC1 expression relative to the ITR_ITR 2 reference construct

B3: Promoter Variant 15: EF-1a promoter variant, 252 nt, SEQ ID NO: 1789 (nucleic acid)
DNA: GGTGGAGAAGAGCATGCGTGAGGCTCCGGTGCCCGTCAGTGGGCAGAGCGCACATCGCCCACAGTCCCCGAGAAGTTGGGGGGAGGGGTCGGCAATTGAACCGGTGCCTAGAGAAGGTGGCGCGGGGTAAACTGGGAAAGTGATGTCGTGTACTGGCTCCGCCTTTTTCCCGAGGGTGGGGGAGAACCGTATATAAGTGCAGTAGTCGCCGTGAACGTTCTTTTTCGCAACGGGTTTGCCGCCAGAACACAG
NPC1 expression normalized to GAPDH and transfection efficiency [1]: increased NPC1 expression relative to the ITR_ITR 2 reference construct

B4: Promoter Variant 18: EF-1a promoter variant, 263 nt, SEQ ID NO: 1791 (nucleic acid)
DNA: GTCATCACTGAGGTGGAGAAGAGCATGCGTGAGGCTCCGGTGCCCGTCAGTGGGCAGAGCGCACATCGCCCACAGTCCCCGAGAAGTTGGGGGGAGGGGTCGGCAATTGAACCGGTGCCTAGAGAAGGTGGCGCGGGGTAAACTGGGAAAGTGATGTCGTGTACTGGCTCCGCCTTTTTCCCGAGGGTGGGGGAGAACCGTATATAAGTGCAGTAGTCGCCGTGAACGTTCTTTTTCGCAACGGGTTTGCCGCCAGAACACAG
NPC1 expression normalized to GAPDH and transfection efficiency [1]: increased NPC1 expression relative to the ITR_ITR 2 reference construct

B5: CMV promoter: short CMV promoter, 205 nt, SEQ ID NO: 1736 (nucleic acid)
DNA: GTGATGCGGTTTTGGCAGTACATCAATGGGCGTGGATAGCGGTTTGACTCACGGGGATTTCCAAGTCTCCACCCCATTGACGTCAATGGGAGTTTGTTTTGGCACCAAAATCAACGGGACTTTCCAAAATGTCGTAACAACTCCGCCCCATTGACGCAAATGGGCGGTAGGCGTGTACGGTGGGAGGTCTATATAAGCAGAGCTC
NPC1 expression (NPC1/B-actin) [4]: increased expression of NPC1 compared to Promoter Variant 11
